How the values were obtained:
[1] = tested on: HTG21 (human telomeric) G4; design: method as in earlier work; details: ref [1], cited from earlier work; for ctDNADC50/HTG21DC50: FID selectivity ratio; for HTG21DC50: FID
ctDNA = tested on: ctDNA; design: method as in earlier work; details: ref [1], cited from earlier work; for ctDNADC50/ctDNADC50: FID selectivity ratio; for ctDNADC50: FID
[2] = tested on: FPu18T (DNA, G4) AGGGTGGGGAGGGTGGGG; experiment: FRET melting; details: 100 mM K+; 10 mM Tris-HCl, pH 7.35; 2.0 μM compound, 1.0 μM DNA
BEL-7404 cells [3] = tested on: BEL-7404 cells; design: method as in earlier work; details: BEL-7404, 48 h; ref [1]; cited from earlier work
BEL-7402 cells = tested on: BEL-7402 cells; design: method as in earlier work; details: BEL-7402, 48 h; ref [1]; cited from earlier work
[4] = tested on: Pu27 (DNA, G4) TGGGGAGGGTGGGGAGGGTGGGGAAGG; experiment: fluorescent intercalator displacement (FID); details: thiazole orange displaced
BEL-7404 cells [5] = experiment: Cell cycle analysis (PI flow cytometry); format: cell-based, human; details: BEL-7404, 10 μM, 48 h; untreated 24.76%
Procedure: Platinum(II)-based drugs were widely used in anticancer chemotherapies, therefore, we performed experiments to test the potency of chiral platinum(II) complexes 4–6 for inducing senescence and apoptosis in BEL-7404 cells. […] We next investigated the effect of complexes 4–6 on the induction of apoptosis. BEL-7404 cells were incubated with complexes 4 (10 and 20 μM), 5 (10 and 20 μM) and 6 (5, 10 and 20 μM) for 24 h, respectively, and then these cells staining with PI and Annexin-V-FITC were determined by flow cytometry (Figure 3A and Supplementary Figure 18). As shown in Figure 3A and Supplementary Figure 18, after treated of complexes 4–6 with 10 μM for 24 h, the percentage of apoptotic cells (including early-stage and late-stage, Q2+Q4) was 13.1%, 7.0% and 25.4%, respectively, whereas the normal cells was only 6.1%. We further investigated the ability of complexes 4–6 (5, 10 and 20 μM) to induce BEL-7404 cell cycle arrest (Figure 3B and Supplementary Figure 19). Cells were treated with complexes 4–6 at 10 μM for 48 h, the cell cycle arrest was determined by using flow cytometry. […]
Apoptosis analysis c-myc antibody, or anti-β-actin primary antibody and the Apoptosis was detected by flow cytometric analysis corresponding secondary antibody were used to detect of annexin V staining. […] Then, cells were incubated with annexin V-FITC and PI for 1.0 h at Staining for SA-β-Gal activity was carried out room temperature in the dark and immediately analyzed according to Moore and Chen reports. […] The data are presented as biparametric After the long-term incubation with complexes 4–6, the dot plots showing PI red fluorescence vs annexin V-FITC growth medium was aspirated and the BEL-7404 cells green fluorescence. were fixed in 2% formaldehyde/0.2% glutaraldehyde for 15.0 min at room temperature. […] Finally, the extraction, RT-PCR, and the selective binding to G4s by BEL-7404 cell cycle was determined with FACS Calibur complexes 4–6 was according to the our previous reported flow cytometer (BD) and analyzed using Cell Quest. […]

c-kit-1 = experiment: FID assay; format: binding; details: for c-kit-1DC50: FID; for ctDNADC50/c-kit-1DC50: FID selectivity ratio
ds26 = experiment: FID assay; format: binding; details: for ds26DC50: FID; for ctDNADC50/ds26DC50: FID selectivity ratio

Row | Molecule | ctDNADC50/HTG21DC50 [1] | HTG21DC50 [1] [µM] | ctDNADC50/ctDNADC50 (ctDNA) | ctDNADC50 (ctDNA) [µM] | ΔTm [2] [°C] | IC50 (BEL-7404 cells [3]) [µM] | IC50 (BEL-7402 cells) [µM] | G4DC50 [4] [µM] | percentage of cells at S phase (BEL-7404 cells [5]) [%] | c-kit-1DC50 (c-kit-1) [µM] | ctDNADC50/c-kit-1DC50 (c-kit-1) | ds26DC50 (ds26) [µM] | ctDNADC50/ds26DC50 (ds26)
1 | O=C(NCC(O)CO)c1cnc2c3c(cccc13)-c1ccccc1C2=O.[Cl-].[Cl-].[Pt+2] (racemic) [ligand 1, R/S-(±)-FOA] | 25.79 | 2.48 | 1.00 | 63.96 | 19.15 | 17.2 ± 0.1 | 30.4 ± 1.5 | 1.01 | – | – | – | – | –
2 | O=C(NC[C@@H](O)CO)c1cnc2c3c(cccc13)-c1ccccc1C2=O.[Cl-].[Cl-].[Pt+2] [ligand 2, R-(+)-FOA] | 17.78 | 2.25 | 1.00 | 39.98 | 16.66 | 20.5 ± 0.1 | 68.6 ± 0.8 | 0.89 | – | – | – | – | –
3 | O=C(NC[C@H](O)CO)c1cnc2c3c(cccc13)-c1ccccc1C2=O.[Cl-].[Cl-].[Pt+2] [ligand 3, S-(–)-FOA] | 48.55 | 1.85 | 1.00 | 89.82 | 23.01 | 15.4 ± 0.2 | 28.5 ± 2.4 | 0.82 | – | – | – | – | –
4 | cis-[PtCl2(R-(+)-FOA)] [complex 5] | – | – | – | – | – | – | – | – | 32.33 | 23.89 | 2.67 | 2.23 | 28.56
5 | cis-[PtCl2(R/S-(±)-FOA)] [complex 4] | – | – | – | – | – | – | – | – | 37.59 | 1.45 | 52.32 | 1.65 | 45.98
6 | cis-[PtCl2(S-(–)-FOA)] [complex 6] | – | – | – | – | – | – | – | – | 38.61 | 1.75 | 51.85 | 1.39 | 65.27

Reference: article PMC5617480 (Oncotarget, 2017)
